This is an account of results in ChEMBL document CHEMBL3804824, “5-((3-Amidobenzyl)oxy)nicotinamides as Sirtuin 2 Inhibitors” (J Med Chem, 2016).

The target of series [1] is T1, NAD-dependent protein deacetylase sirtuin-3, mitochondrial (Homo sapiens, UniProt Q9NTG7).
T1 sequence (Q9NTG7 whole entry): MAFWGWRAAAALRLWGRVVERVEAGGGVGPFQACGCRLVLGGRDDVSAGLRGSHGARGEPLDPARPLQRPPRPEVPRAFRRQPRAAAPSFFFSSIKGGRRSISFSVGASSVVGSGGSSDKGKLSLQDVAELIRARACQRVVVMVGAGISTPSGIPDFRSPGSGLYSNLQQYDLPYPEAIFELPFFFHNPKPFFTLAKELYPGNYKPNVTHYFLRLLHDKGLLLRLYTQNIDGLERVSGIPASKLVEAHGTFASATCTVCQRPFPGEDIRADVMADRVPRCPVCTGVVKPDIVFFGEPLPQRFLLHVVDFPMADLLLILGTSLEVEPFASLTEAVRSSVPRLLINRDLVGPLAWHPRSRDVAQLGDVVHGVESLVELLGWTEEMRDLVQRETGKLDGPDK

Series [2] in a line: in vitro. As to conditions: mouse, plasma.
Description: Metabolic stability in mouse plasma assessed as parent compound remaining incubated for 24 hrs by LC-MS/MS analysis
The nature of series [3]: in vitro. As to conditions: mouse, plasma. The source holds these as a separate data set.
Description: Metabolic stability in mouse plasma assessed as parent compound remaining incubated for 6 hrs by LC-MS/MS analysis
The nature of series [4]: in vitro. To be noted: dog, MDCK.
Series [5] is described as follows: in vitro. To be noted: mouse, microsomes.
Description: Half life in mouse liver microsomes at 1 uM by LC-MS/MS analysis in presence of NADPH
Series [6] in a line: in vitro. To be noted: dog, MDCK. This is another data set of the same source.
Series [7] can be described thus: in vitro. To be noted: human, plasma.
Description: Metabolic stability in human plasma assessed as parent compound remaining incubated for 6 hrs by LC-MS/MS analysis
Series [8] has as its target NAD-dependent protein deacylase sirtuin-5, mitochondrial (Homo sapiens, UniProt Q9NXA8).
Series [9] in a line: in vitro. As to conditions: dog, MDCK. This is another data set of the same source.
The nature of series [10]: in vitro. As to conditions: human, microsomes.
Description: Half life in human liver microsomes at 1 uM by LC-MS/MS analysis in presence of NADPH
Series [11] can be described thus: in vitro. To be noted: human, plasma. This is another data set of the same source.
Description: Metabolic stability in human plasma assessed as parent compound remaining incubated for 24 hrs by LC-MS/MS analysis

Molecules are shown by their SMILES.

Chain of NAD-dependent protein deacylase sirtuin-5, mitochondrial (Q9NXA8 whole entry): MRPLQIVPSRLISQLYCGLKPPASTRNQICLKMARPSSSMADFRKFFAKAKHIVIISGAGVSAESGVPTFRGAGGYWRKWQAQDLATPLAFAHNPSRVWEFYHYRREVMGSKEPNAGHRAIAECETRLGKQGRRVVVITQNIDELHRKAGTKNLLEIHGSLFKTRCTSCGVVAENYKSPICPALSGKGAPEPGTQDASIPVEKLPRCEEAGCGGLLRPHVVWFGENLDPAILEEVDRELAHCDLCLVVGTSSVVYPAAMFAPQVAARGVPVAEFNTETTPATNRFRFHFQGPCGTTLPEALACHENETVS

Broadly, the IC50 is the concentration needed to halve the response being measured. Compound `NC(=O)c1cncc(OCc2cccc(NC(=O)C34CC5CC(CC(C5)C3)C4)c2)c1` yielded an IC50 in series [1] above 200 µM.

A word on the amount remaining: it is what is left of the initial amount, in per cent. A lower amount remaining goes with a greater loss. By half-life is commonly meant the time needed for the level to fall by half in the phase considered. Low values mean rapid decline, high ones slow decline. By Papp A→B is commonly meant how fast a substance crosses the layer from the apical side. A high value points to ready permeation. The term Papp B→A denotes the apparent permeability from the basolateral to the apical side of a cell layer. For `NC(=O)c1cncc(OCc2cccc(NC(=O)c3cccnc3)c2)c1`, the fraction remaining at 24 h in the series “in vitro [2]” was determined as 25%; in the series “in vitro [11]” it was 97%. Besides, the fraction remaining at 6 h in “in vitro [3]” was 78%; in “in vitro [7]” it was 99%. Besides, in the series “in vitro [4]”, the recovery at 3 h, 25 µM is above 90%. The results for the half-life at 1 µM in “in vitro [5]” and in “in vitro [10]” were 0.85 h and 5.5 h, respectively. In addition, the apparent permeability from apical to basolateral (Papp A→B) at 3 h, 25 µM in the series “in vitro [6]” was determined as 23 ×10⁻⁶ cm/s. In addition, in series [8], the half-maximal inhibitory concentration (IC50) is above 200 µM. The Papp B→A at 3 h, 25 µM in “in vitro [9]” turned out to be 25 ×10⁻⁶ cm/s.

Compound `NC(=O)c1cncc(Oc2cccc3c(NC(=O)c4ccccc4)cccc23)c1` registered a recovery at 3 h, 25 µM in the series “in vitro [4]” above 90%. Besides, the Papp A→B at 3 h, 25 µM in the series “in vitro [6]” was 3.8 ×10⁻⁶ cm/s. In addition, the Papp B→A at 3 h, 25 µM in “in vitro [9]” was determined as 4.4 ×10⁻⁶ cm/s.
